Reference: ChEMBL document CHEMBL1136592, “Orally efficacious NR2B-selective NMDA receptor antagonists” (Bioorg Med Chem Lett, 2003)

What was measured:
[1] = target: T1, Glutamate receptor ionotropic, NMDA 2B (Homo sapiens, UniProt Q05586+Q13224); test: Displacement of NMDA receptor-specific [3H]ifenprodil binding to recombinant human NMDA receptor, NR2B subtype expressed in L cells; format: cell-based
[2] = Bioavailability in rat; format: ADME, organism-based; details: in vivo
[3] = Half life period in rat; format: ADME, organism-based; details: in vivo
[4] = target: Glutamate receptor ionotropic, NMDA 2A (Homo sapiens, UniProt Q05586+Q12879); test: Inhibition of the response to NMDA glutamate/glycine receptor NR2A subtype was determined using FLIPR assay
[5] = target: T1, Glutamate receptor ionotropic, NMDA 2B; test: Inhibition of the response to NMDA glutamate/glycine receptor NR2B subtype was determined using FLIPR assay
Rattus norvegicus = test: Efficacy was determined by scoring behavioral responses to noxious stimuli in carrageenan-induced hyperalgesia assay in the rat after oral administration; format: functional

Chain of Glutamate receptor ionotropic, NMDA 2A (Q12879 whole entry, one chain of several): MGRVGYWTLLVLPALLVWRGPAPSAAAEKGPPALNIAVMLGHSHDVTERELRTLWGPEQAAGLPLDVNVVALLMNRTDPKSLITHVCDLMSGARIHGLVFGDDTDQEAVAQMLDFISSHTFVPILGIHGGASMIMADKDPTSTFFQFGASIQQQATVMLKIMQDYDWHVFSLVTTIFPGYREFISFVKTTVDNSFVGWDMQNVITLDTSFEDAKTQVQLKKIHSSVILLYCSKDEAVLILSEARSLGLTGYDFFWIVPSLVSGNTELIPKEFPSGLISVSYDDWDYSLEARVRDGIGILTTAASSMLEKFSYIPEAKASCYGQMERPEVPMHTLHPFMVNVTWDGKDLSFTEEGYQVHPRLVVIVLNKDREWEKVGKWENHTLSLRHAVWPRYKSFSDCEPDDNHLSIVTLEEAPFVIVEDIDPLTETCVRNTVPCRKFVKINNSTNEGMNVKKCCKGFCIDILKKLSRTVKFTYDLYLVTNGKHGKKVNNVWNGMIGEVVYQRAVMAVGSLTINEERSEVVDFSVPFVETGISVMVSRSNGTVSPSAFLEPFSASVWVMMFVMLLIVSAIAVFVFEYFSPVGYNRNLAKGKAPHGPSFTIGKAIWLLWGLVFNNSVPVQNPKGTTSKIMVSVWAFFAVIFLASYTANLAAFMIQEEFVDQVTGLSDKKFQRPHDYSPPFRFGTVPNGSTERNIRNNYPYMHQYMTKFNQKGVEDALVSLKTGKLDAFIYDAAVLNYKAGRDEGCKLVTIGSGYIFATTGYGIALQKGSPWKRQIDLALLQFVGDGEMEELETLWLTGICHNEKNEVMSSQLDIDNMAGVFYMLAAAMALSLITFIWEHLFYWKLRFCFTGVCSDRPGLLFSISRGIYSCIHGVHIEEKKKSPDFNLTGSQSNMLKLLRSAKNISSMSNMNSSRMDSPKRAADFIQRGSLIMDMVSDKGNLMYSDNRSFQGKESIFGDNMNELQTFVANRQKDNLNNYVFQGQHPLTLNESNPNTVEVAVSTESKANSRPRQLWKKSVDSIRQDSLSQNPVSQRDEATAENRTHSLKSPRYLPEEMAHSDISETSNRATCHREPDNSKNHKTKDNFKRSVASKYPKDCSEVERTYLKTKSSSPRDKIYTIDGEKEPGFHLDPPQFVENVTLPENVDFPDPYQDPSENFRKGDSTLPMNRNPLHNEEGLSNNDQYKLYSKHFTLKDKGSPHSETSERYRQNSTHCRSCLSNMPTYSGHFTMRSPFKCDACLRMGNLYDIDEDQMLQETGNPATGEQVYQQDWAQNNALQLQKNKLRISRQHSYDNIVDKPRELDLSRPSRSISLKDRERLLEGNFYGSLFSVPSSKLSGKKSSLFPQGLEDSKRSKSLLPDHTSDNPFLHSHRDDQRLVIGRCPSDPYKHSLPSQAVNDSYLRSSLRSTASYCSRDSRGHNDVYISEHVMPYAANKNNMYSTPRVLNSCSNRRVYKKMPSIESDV
T1 sequence (Q13224 whole entry, one chain of several): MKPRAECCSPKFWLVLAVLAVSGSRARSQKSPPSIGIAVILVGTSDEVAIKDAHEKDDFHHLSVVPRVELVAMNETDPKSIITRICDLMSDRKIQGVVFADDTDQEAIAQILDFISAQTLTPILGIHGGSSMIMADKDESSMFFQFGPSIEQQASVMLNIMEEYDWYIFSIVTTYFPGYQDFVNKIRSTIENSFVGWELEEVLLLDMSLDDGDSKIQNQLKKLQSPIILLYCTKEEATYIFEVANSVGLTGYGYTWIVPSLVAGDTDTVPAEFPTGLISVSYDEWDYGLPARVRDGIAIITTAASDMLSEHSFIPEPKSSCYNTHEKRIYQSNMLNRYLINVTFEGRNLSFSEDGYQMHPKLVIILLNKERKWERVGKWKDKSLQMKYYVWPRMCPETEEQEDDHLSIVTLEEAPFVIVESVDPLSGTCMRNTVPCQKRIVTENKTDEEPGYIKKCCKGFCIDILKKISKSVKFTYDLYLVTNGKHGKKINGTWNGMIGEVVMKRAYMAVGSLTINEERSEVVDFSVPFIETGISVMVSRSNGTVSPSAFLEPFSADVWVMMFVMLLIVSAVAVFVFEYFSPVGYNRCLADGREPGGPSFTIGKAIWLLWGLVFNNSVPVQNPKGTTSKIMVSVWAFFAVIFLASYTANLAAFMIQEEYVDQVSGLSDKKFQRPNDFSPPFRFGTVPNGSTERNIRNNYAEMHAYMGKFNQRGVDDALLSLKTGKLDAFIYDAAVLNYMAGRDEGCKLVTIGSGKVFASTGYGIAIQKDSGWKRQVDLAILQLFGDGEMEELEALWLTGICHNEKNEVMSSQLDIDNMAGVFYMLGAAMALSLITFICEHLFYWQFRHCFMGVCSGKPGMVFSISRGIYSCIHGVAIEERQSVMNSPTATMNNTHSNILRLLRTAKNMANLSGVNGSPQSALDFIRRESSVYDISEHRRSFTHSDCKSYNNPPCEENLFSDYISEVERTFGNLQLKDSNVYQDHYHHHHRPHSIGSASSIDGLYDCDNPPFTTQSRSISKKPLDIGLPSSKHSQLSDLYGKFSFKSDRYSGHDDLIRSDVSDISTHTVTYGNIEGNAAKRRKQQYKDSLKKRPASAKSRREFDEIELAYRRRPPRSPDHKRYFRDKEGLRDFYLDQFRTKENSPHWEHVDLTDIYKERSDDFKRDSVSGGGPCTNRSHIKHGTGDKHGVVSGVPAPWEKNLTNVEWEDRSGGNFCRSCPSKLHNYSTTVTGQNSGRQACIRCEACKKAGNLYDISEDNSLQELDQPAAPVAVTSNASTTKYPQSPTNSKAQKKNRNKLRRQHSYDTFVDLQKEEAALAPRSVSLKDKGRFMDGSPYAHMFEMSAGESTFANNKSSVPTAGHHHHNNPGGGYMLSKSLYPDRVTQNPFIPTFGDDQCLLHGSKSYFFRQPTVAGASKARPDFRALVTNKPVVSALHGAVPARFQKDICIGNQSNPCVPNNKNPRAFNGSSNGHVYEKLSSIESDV

With `NC(=NCc1cccc(Cl)c1)c1ccccc1F` the Ki [1] was greater than 15000 nM.
Compound `N=C(/C=C/c1ccccc1)NCc1ccccc1` has a Ki [1] of 9 nM.
With `NC(=NCc1ccccc1C(F)(F)F)c1ccc(OC(F)(F)F)cc1` the bioavailability [2] was 100%, the half-life [3] was 2.45 h and the IC50 [4] was greater than 10000 nM. For the same compound, the IC50 [5] was 47 nM, the Ki [1] was 72 nM and the ED50 (Rattus norvegicus) was 5.5 mg/kg.
`N=C(NCc1ccccc1)c1ccc(C(F)(F)F)cc1` showed an IC50 [5] of 360 nM and a Ki [1] of 480 nM.
`NC(=NCc1cccc(Cl)c1)c1ccc(C(F)(F)F)cc1` gave an IC50 [5] of 32 nM and a Ki [1] of 20 nM.
`COc1ccccc1C/N=C(\N)c1ccc(OC(F)(F)F)cc1` showed an IC50 [5] of 4.1 nM and a Ki [1] of 5.7 nM.
`Cc1cc(C)cc(C/N=C(\N)c2ccc(OC(F)(F)F)cc2)c1` showed a bioavailability [2] of 4%, a half-life [3] of 1.53 h and an IC50 [4] greater than 10000 nM. The IC50 [5] was 4.2 nM, the Ki [1] was 1.2 nM and the ED50 (Rattus norvegicus) was greater than 30 mg/kg.
`NC(=NCc1cccc(Cl)c1)c1ccc(Cl)c(Cl)c1` showed a bioavailability [2] of 44%, a half-life [3] of 1.5 h and an IC50 [4] greater than 10000 nM. For the same compound, the IC50 [5] was 110 nM, the Ki [1] was 16 nM and the ED50 (Rattus norvegicus) was 14 mg/kg.
For `N=C(NCc1cccc(Cl)c1)c1ccc(F)cc1`, the IC50 [5] was 450 nM and the Ki [1] was 600 nM.
Compound `COc1ccc(C/N=C(\N)c2ccc(OC(F)(F)F)cc2)cc1` has a Ki [1] of 1100 nM.
Compound `N=C(NCc1cc(Cl)cc(Cl)c1)c1ccc(OC(F)(F)F)cc1` has a bioavailability [2] of 68%, a half-life [3] of 7 h and an IC50 [4] greater than 10000 nM. The IC50 [5] was 24 nM, the Ki [1] was 0.6 nM and the ED50 (Rattus norvegicus) was 16 mg/kg.
For `N=C(NCc1ccccc1)c1ccc(OC(F)(F)F)cc1`, the IC50 [5] was 46 nM and the Ki [1] was 120 nM.
For `N=C(NCc1cccc(Cl)c1)c1ccc(Cl)cc1`, the IC50 [5] was 160 nM and the Ki [1] was 63 nM.
`N=C(NCc1ccccc1OC(F)(F)F)c1ccc(Cl)c(Cl)c1` showed a bioavailability [2] of 31%, a half-life [3] of 3.05 h and an IC50 [4] greater than 10000 nM. It also gave an IC50 [5] of 57 nM, a Ki [1] of 12 nM and an ED50 (Rattus norvegicus) of 7.5 mg/kg.
In the case of `NC(=NCc1ccccc1)c1ccc(Cl)cc1`, the IC50 [5] is reported as 720 nM and the Ki [1] is reported as 970 nM.
`Cc1cc(C)cc(C/N=C(\N)c2ccc(C(F)(F)F)cc2)c1` gave an IC50 [5] of 8.7 nM and a Ki [1] of 3.9 nM.
With `NC(=NCc1cccc(Cl)c1)c1cccc(Cl)c1` the IC50 [5] was 420 nM and the Ki [1] was 800 nM.
Work on `N=C(NCc1cccc(C(F)(F)F)c1)c1ccc(C(F)(F)F)cc1` yielded an IC50 [5] of 660 nM and a Ki [1] of 700 nM.
For `N=C(NCc1ccccc1)c1ccc(-c2ccccc2)cc1`, the Ki [1] was 1800 nM.
With `NC(=NCc1cccc(Cl)c1)c1ccccc1Cl` the Ki [1] was 3900 nM.
In the case of `COc1cccc(C/N=C(\N)c2ccc(OC(F)(F)F)cc2)c1`, the IC50 [5] is reported as 9.7 nM and the Ki [1] is reported as 23 nM.
`NC(=NCc1ccccc1)c1ccccc1` gave a Ki [1] greater than 15000 nM.
With `N=C(NCc1cccc(Cl)c1)c1cccc(F)c1` the Ki [1] was 2000 nM.
`N=C(NCc1ccccc1Cl)c1ccc(C(F)(F)F)cc1` showed an IC50 [5] of 48 nM and a Ki [1] of 56 nM.
